Read-outs that look alike come from different tables or passages of the source.
Key:
[1] = molecular target: T1, human α2AAR (Homo sapiens (Human), UniProt P08913); test: Radioligand competition binding to human α2AAR (HEK293T membranes, [3H]RX82,1002); conditions: human α2AAR
[2] = molecular target: α2AAR F427^7.39 mutant (Homo sapiens (Human), UniProt P08913, F427A); test: Gi activation (BRET) at α2AAR F427^7.39 mutant; format: cell-based
Description: (§1) Investigating the sensitivity of selected ligands to the receptor mutants α2AAR-D128^3.32A, α2AAR-D128^3.32T, α2AAR-D128^3.32L, α2AAR-S215^5.42A, α2AAR-Y409^6.55A, α2AAR-Y409^6.55T, α2AAR-Y409^6.55F, α2AAR-F427^7.39F, α2AAR-Y431^7.43A, and α2AAR-Y431^7.43F was determined by monitored G protein stimulation as described above transfecting the appropriate receptor together with Gαi1-RLucII and Gβ1/Gγ1-GFP10. […] Three to ten experiments were done in duplicate.
(§2) The sensitivity of selected ligands to the receptor mutants α2AAR-D128^3.32A, α2AAR-D128^3.32T, α2AAR-D128^3.32L, α2AAR-S215^5.42A, α2AAR-Y409^6.55A, α2AAR-Y409^6.55T, α2AAR-Y409^6.55F, α2AAR-F427^7.39F, α2AAR-Y431^7.43A, and α2AAR-Y431^7.43F was monitored by G protein activation as described above transfecting the appropriate receptor together with Gαi1-RLucII and Gβ1/Gγ2-GFP10. […] Similarly, the effect of the α2AAR-D128^3.32A, α2AAR-S215^5.42A, α2AAR-Y409^6.55A, α2AAR-Y409^6.55F, α2AAR-F427^7.39F, α2AAR-Y431^7.43A, and α2AAR-Y431^7.43F mutations on arrestin recruitment was evaluated as described above transfecting the appropriate receptor together with CAAX-rGFP, GRK2 and β-arrestin-2-RLucII. Data was analyzed as ligand induced changes in BRET compared to vehicle (deltaBRET). Three to seven experiments were done in duplicate.

[3] = molecular target: α2AAR-S215^5.42A (Homo sapiens (Human), UniProt P08913, S215A); test: Gi activation (BRET) at α2AAR S215^5.42A mutant; format: cell-based; conditions: versus wild type
Description: as §1, §2

[4] = Metabolic stability in male rat liver microsomes; format: in vitro ADME; conditions: 1 hour
Description: Metabolic stability studies. Metabolic stability of the test compounds was assessed using male pooled rat liver microsomes (Sprague Dawley, Sigma Aldrich) as previously described (93, 94). The reactions were carried out in 2 mL polyethylene tubes on a rotator carousel (Stuart™ SB3) in an incubator at 37° C. […] Transformation reactions were initiated by the addition of 50 μL of cofactor solution (NADPH, Carl Roth, final concentration 1 mM). […] Precipitated protein was removed by centrifugation (1 min, 16,000 rcf) and the supernatants were analysed by HPLC/MS on a Thermo Scientific Dionex Ultimate 3000 HPLC system equipped with a Zorbax Eclipse XDB-C8 column (4.6×150 mm, 5 μm), a DAD detector (210 nm, 230 nm, 254 nm, 310 nm), and a BRUKER amaZon SL mass spectrometer with ESI source. The following binary eluent system (methanol in water+0.1% (v/v) formic acid) was employed: 10% for 1 min, 10% to 100% in 20 min, 100% for 5 min, 100% to 10% in 2 min, 10% for 2 min, flow 0.4 mL/min. […] Control experiments were conducted in the absence of cofactor solution to determine non-specific binding to matrix. The integral (AUC) of the extracted ion chromatograms (EIC) was used to analyze the concentration of the remaining substrates. […]

[5] = test system: SNI mice; test: Spared-nerve injury (SNI) model of neuropathic pain, von Frey mechanical thresholds; format: in vivo
Description: Spared-nerve injury (SNI) model of neuropathic pain. Under isoflurane anesthesia, two of the three branches of the sciatic nerve were ligated and transected distally, leaving the sural nerve intact. Behavior was tested 7 to 14 days after injury and in situ hybridization was performed one week post-injury.

[6] = molecular target: T1, human α2AAR; test: α2AAR internalization assay with rGFP-CAAX and rGFP-FYVE biosensors; format: cell-based; conditions: α2AAR-RlucII/rGFP-CAAX biosensor
Description: Human α2AAR internalization was evaluated by measuring the disappearance of hα2AAR-RlucII from the plasma membrane labeled with rGFP-CAAX and its relocalization in endosome labeled with rGFP-FYVE (39).
For concentration-response curves, BRET signal was measured after 30 min incubation. Plates were read on a Spark microplate reader (Tecan; Mannedorf, Switzerland) using the BRET2 manufacturer settings.

[7] = molecular target: ALPHA-2A ADRENERGIC RECEPTOR (Homo sapiens (Human), UniProt P08913); test: Gi recruitment (G protein); format: cell-based; conditions: Gi recruitment
[8] = analgesia in vivo; conditions: result in words, Table 6
[9] = molecular target: T1, human α2AAR; test: DiscoverX HitHunter cAMP G-protein activation assay
Description: DiscoverX HitHunter cAMP G-protein activation assay. […] Freezer stock cAMP Hunter cell lines were expanded, then seeded in a total volume of 20 uL into white walled, 384-well microplates and incubated at 37° C. prior to testing. For agonist determination, cells were incubated with compound samples in the presence of EC80 forskolin to induce response. Media was aspirated from cells and replaced with 15 uL 2:1 HBSS/10 mM Hepes: cAMP XS+Ab reagent. Intermediate dilution of sample stocks was performed to generate 4× sample in assay buffer containing 4× EC80 forskolin. […] Finally assay vehicle concentration was 1%. After sample incubation assay signal was generated through incubation with 20 uL cAMP XS+ED/CL lysis cocktail for one hour followed by incubation with 20 uL cAMP XS+EA reagent for three hours at room temperature. Microplates were read following signal generation with a PerkinElmer Envision Instrument for chemiluminescent signal detection. Compound activity was analyzed using CBIS data analysis suite. For Gi agonist mode, percentage activity is calculated using the following formula: % Activity=100%×(1−(mean RLU of test sample−mean RLU of MAX control)/(mean RLU of vehicle control−mean RLU of MAX control)). […] Each measurement was done in duplicate.
DiscoverX HitHunter cAMP G-protein activation assay. […] Freezer stock cAMP Hunter cell lines were expanded, then seeded in a total volume of 20 μL into white walled, 384-well microplates and incubated at 37° C. prior to testing. For agonist determination, cells were incubated with compound samples in the presence of EC50 forskolin to induce response. Media was aspirated from cells and replaced with 15 μL 2:1 HBSS/10 mM Hepes: cAMP XS+Ab reagent. Intermediate dilution of sample stocks was performed to generate 4× sample in assay buffer containing 4× EC80 forskolin. […] Finally assay vehicle concentration was 1%. After sample incubation assay signal was generated through incubation with 20 μL cAMP XS+ED/CL lysis cocktail for one hour followed by incubation with 20 μL cAMP XS+EA reagent for three hours at room temperature. Microplates were read following signal generation with a PerkinElmer Envision Instrument for chemiluminescent signal detection. Compound activity was analyzed using CBIS data analysis suite. For Gi agonist mode, percentage activity is calculated using the following formula: % Activity=100%×(1−(mean RLU of test sample−mean RLU of MAX control)/(mean RLU of vehicle control−mean RLU of MAX control)). […] Each measurement was done in duplicate.

[10] = molecular target: T1, human α2AAR; test: Gαi G protein activation, BRET biosensor assay in HEK293T cells; conditions: for Emax: HEK-293T
Description: (§3) Bioluminescense resonance energy transfer. G protein mediated activation of human α2AAR and D2long was monitored with Gαi1-RLucII (71, 72) together with Gβ1 and Gγ1-GFP10. Arrestin recruitment was performed by enhanced bystander BRET using CAAX-rGFP and β-arrestin-2-RLucII as biosensors (all biosensors are provided from M. Bouvier, Université de Montréal, Canada) (71, 73) in the presence of GRK2 as described (66, 74). In brief, HEK293T cells were transfected with a total amount of 3.3 μg DNA per 10^6 cells using linear polyethyleneimine (PEI, Polysciences, 3:1 PEI:DNA ratio) and transferred into 96-well half-area plates (Greiner, Frickenhausen, Germany) at a density of 10,000 cells per well and incubated for 48 hrs. Medium was exchanged with PBS (Hank's balanced salt solution) and cells were stimulated with ligands at 37° C. for 10 min for Gαi stimulation or arrestin recruitment, respectively.

[11] = molecular target: T1, human α2AAR; test: β-arrestin-2 recruitment, BRET biosensor assay in HEK293T cells; conditions: HEK-293T
Description: as §3

Sequence of ALPHA-2A ADRENERGIC RECEPTOR (P08913 whole entry): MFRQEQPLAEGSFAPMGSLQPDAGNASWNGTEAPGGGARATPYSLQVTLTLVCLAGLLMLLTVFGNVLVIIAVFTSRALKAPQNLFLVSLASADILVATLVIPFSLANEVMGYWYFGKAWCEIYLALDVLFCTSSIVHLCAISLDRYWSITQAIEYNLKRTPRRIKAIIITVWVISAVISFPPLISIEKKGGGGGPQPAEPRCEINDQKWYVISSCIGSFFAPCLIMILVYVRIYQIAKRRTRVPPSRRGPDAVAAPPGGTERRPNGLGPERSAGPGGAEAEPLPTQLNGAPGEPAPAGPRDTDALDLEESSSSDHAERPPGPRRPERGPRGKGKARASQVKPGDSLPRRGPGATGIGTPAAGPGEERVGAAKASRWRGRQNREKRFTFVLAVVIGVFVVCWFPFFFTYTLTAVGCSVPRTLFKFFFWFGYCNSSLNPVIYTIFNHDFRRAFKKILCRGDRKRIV
T1 sequence (P08913 whole entry): as above
Sequence of α2AAR-S215^5.42A (P08913 whole entry S215A): as the sequence (P08913 whole entry) above, with S215A counted along it
Sequence of α2AAR F427^7.39 mutant (P08913 whole entry F427A): as the sequence (P08913 whole entry) above, with F427A counted along it

For `Fc1cccc2c(Nc3ccncc3)cccc12` [Compound 7075, N-(5-fluoronaphthalen-1-yl)pyridin-4-amine], which Ki ([1]; mean ± SEM (Table 3), read-out: Ki) is on record?
Its Ki is 37 ± 5.1 nM.

What about the Ki ([1]; mean ± s.e.m., read-out: Ki for α2AAR) of the same molecule?
Its Ki is 37 ± 5.1 nM.

What about the “Gi activity at F427^7.39 substitution” value [2] of the same molecule?
Its value is “eliminated”.

What about the “Fold improvement of Gi potency at S215^5.42A” value [3] of the same molecule?
Its value is 11 fold.

And the “Metabolic stability, compound remaining” value [4]?
The value was “remain largely unmodified after 1 hour”.

And the “Effect of atipamezole on the agonist's effect in SNI mice” value ([5]; atipamezole 2 mg/kg, 15 minutes prior)?
The value was “reversed by atipamezole”.

And the “Mechanical thresholds / anti-allodynic effect in SNI mice” value ([5]; systemic injection)?
The value was “exhibited anti-allodynic effects”.

What about the “Reversal of mechanical hypersensitivity in SNI mice” value ([5]; systemic injection) of the same molecule?
Its value is “completely reversed the mechanical hypersensitivity”.

What about the “Disappearance of α2AAR from the plasma membrane (internalization)” value [6] of the same molecule?
The value was “no effect”.

What about the “functional classification (agonist / weak agonist)” value ([7]; Table 6, result in words) of the same molecule?
The value was “agonist”.

And the EC50 ([7]; Table 6, read-out: EC50)?
The EC50 was 4.1 nM.

And the Emax ([7]; Table 6, read-out: Emax (%))?
Its Emax is 89%.

What about the analgesic in vivo [8] of the same molecule?
The analgesic in vivo was “analgesic in vivo”.

What about the EC50 [9] of the same molecule?
The EC50 was 18 nM.

And the Emax ([9]; read-out: Gi/o Emax)?
Its Emax is 96%.

And the “Fold increased Gi potency compared to ‘9087” value [10]?
Its value is 13 fold.

What about the EC50 ([10]; Gi EC50 ± SE, BRET biosensor, human α2AAR (Table 3)) of the same molecule?
Its EC50 is 4.1 nM.

And the EC50 ([10]; Gαi EC50, BRET biosensor, HEK293T, human α2AAR)?
Its EC50 is 4.1 nM.

What about the Emax ([10]; read-out: Gi Emax ± SEM) of the same molecule?
Its Emax is 93%.

And the Emax ([10]; read-out: Gαi Emax)?
Its Emax is 93%.

What about the Emax ([11]; read-out: β-Arr-2 Emax @ 0.1 mM) of the same molecule?
The Emax was 10%.

What about the Emax at 100 µM ([11]; read-out: β-arrestin-2 Emax @ 0.1 mM) of the same molecule?
Its Emax at 100 µM is 10 ± 7%.

From patent US20250032476A1, “ALPHA-2A ADRENERGIC RECEPTOR MODULATORS AND USES THEREOF” (The Regents of the University of California, priority 2021, published 2025)
